# Measured values published in US20140243401A1, “METHODS OF SCREENING COMPOUNDS THAT ARE CYTOTOXIC TO TUMOR CELLS AND METHODS OF TREATING TUMOR CELLS USING SUCH COMPOUND” (The Johns Hopkins University, priority 2010, published 2014).
# Experiments:
# MCF7 cells = assay: cellular ATP level, bioluminescence; type: cell-based, human
# Procedure: As mitochondria serve as the energy production center of the cell, their main purpose is the generation of ATP. As a functional readout, cellular ATP levels may be measured to obtain an indication of mitochondrial status upon compound treatment. MCF-7 cells were cultured the standard medium, and ATP levels were measured by chemiluminescence.
# MCF7 human breast cancer cells cultured in DMEM containing 5 mM glucose medium with 10% fetal calf serum, 0.01 mg/ml insulin and 1% penicillin/streptomycin. Cells were plated in 24-well cell culture plates at 2×10^5 per well overnight. After drug treatment, cells were lysed using 500 μl of TE buffer (4 mM Tris, 0.25 mM EDTA, pH 7.4) and boiled at 95° C. for 7 min. ATP levels were measured within the linear range using the ATP BioLuminescence Kit CLSII (Roche) by following the manufacture's recommendation. Luminescence was detected using PerkinElmer Victor 1420.
# Determination of the effect on cellular ATP level was carried out using the procedure described above. Cells were plated in 24 well cell culture plates at 2×10^5 per well overnight. Cells were cultured in 1 mM or 5 mM glucose at either 1% or 21% (ambient) oxygen levels. […] ATP levels were measured within the linear range using the ATP Bioluminescence Kit CLSII (Roche) by following the manufacture's recommendation. Luminescence was detected using PerkinElmer Victor 1420.
# [1] = test system: MCF7 human breast cancer cells; assay: XTT cytotoxicity assay, MCF7; type: cell-based
# Procedure: Cytotoxicity can be easily measured using XTT assays, which provide an indication of mitochondrial activity. The XTT assay is a non-radioactive alternative for the [^51Cr] release cytotoxicity assay. XTT is a tetrazolium salt that is reduced to a formazan dye only by metabolically active, viable cells. The reduction of XTT is measured spectrophotometrically as OD490-OD650. Thus, cells that are actively metabolizing will form reaction product when subjected to XTT measurement.
# For this experiment, cells were cultured under standard culture conditions. MCF7 human breast cancer cells were cultured in DMEM containing 5 mM glucose medium with 10% fetal calf serum, 0.01 mg/ml insulin and 1% penicillin/streptomycin. To measure the cytotoxicity of specific compounds against cancer cells, 9×10^3 MCF7 cells were plated per well in 96-well plates. Following overnight culture, the compounds, dissolved in DMSO, were added to the wells in 1 μl volume at specified concentrations. Vehicle controls were run for each experiment. Each condition was run in triplicate. After 24 to 72 h of incubation, cells were incubated for 4 hours with the XTT reagent as per manufacturer's instructions (Cell Proliferation Kit II (XTT) Roche Diagnostics, New Jersey). Plates were read at OD490 on a PerkinElmer Victor 1420. Three wells containing the XTT reagent without cells served as the plate blank. XTT data were reported as OD490.
# MCF7 human breast cancer cells were cultured in DMEM containing 1 mM or 5 mM glucose in the medium with 10% fetal calf serum, 0.01 mg/ml insulin and 1% penicillin/streptomycin. The cells were grown in two oxygen conditions, normoxia (21% 02) or hypoxia (1% 02). To measure the cytotoxicity of specific compounds against cancer cells, 9×10^3 MCF7 cells were plated per well in 96-well plates. Following overnight culture, the compounds, dissolved in DMSO, were added to the wells in 1 μl volume at specified concentrations. After 24 to 72 h of incubation, cells were incubated for 4 h with the XTT reagent as per manufacturer's instructions (Cell Proliferation Kit II (XTT) Roche Diagnostics, New Jersey). Plates were read at OD490 on a PerkinElmer Victor 1420. Three wells containing the XTT reagent without cells served as the plate blank. XTT data were reported as OD490Vehicle controls were run for each experiment. Each condition was run in triplicate.
structure (smiles),measurement,setting,value
CCCCCCCCC1(C)SC(=O)C=C1OCC(=O)Nc1ccc(Cl)cc1 (stereo not shown) [Compound C31],ATP levels,"MCF7 cells; MCF7, 1 mM or 5 mM glucose, 1% or 21% oxygen, FIG. 10",ATP levels declined in all of the cells
same,ATP levels,"MCF7 cells; MCF7, standard medium 5 mM glucose, FIG. 5",rapidly decreased
same,cytotoxicity (XTT),"[1]; MCF7, 1 mM or 5 mM glucose, 1% or 21% O2, FIG. 9",increases if the cells are hypoglycemic and even more if the cells are hypoxic
same,cytotoxicity / cell viability (XTT),"[1]; MCF7, standard culture, FIG. 4 A, B",concentration-dependent cytotoxicity
